Results taken from publication PMC11631053, “A receptor-based assay to study the sweet and bitter tastes of sweeteners and binary sweet blends: the SWEET project” (Chemical Senses, 2024).
Like-named read-outs stand apart in the source and are kept apart here. Marks after values point to notes of the source that are not given here.

Tests used:
TAS2R45 = molecular target: T1, TAS2R45 (Homo sapiens, UniProt P59539); assay: Calcium mobilization assay, HEK293T-Gα16gust44 cells expressing TAS2R45; conditions: maximal concentration tested: sucralose 100 mM, neotame 30 µM, Ace-K 300 mM, RebA 4 mM, RebM 4 mM, mogroside V 5 mM, erythritol 200 mM, D-allulose 500 mM, thaumatin 100 mM
T1 sequence (P59539 1-299): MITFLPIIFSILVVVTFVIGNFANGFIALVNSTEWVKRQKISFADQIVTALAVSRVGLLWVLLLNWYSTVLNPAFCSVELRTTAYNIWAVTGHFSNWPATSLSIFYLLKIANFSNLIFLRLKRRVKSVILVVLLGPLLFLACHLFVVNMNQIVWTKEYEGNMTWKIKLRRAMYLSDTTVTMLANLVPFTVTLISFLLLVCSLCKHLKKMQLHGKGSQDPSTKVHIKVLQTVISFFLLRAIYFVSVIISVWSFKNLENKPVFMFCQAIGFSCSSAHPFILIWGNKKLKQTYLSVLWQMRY
Protocol: (§1) Different concentration ranges were tested depending on the injected sweet compound. […] All of the concentration-receptor combinations were measured in triplicate, and each experiment was repeated at least 3 times. The Ca^2+ change was expressed as a fractional change in fluorescent light intensity: ΔF/F = (F − F0)/F0, where F was the fluorescent light intensity at each point, and F0 was the value of fluorescent light emitted prior to stimulus application. To calculate dose–response relationships, the changes in fluorescence upon stimulus application were averaged, mock-subtracted and baseline-corrected. The resulting obtained dose–response data were adjusted by using a 4-parameter logistic equation. The half-maximal effective concentration (EC50) was calculated by using SigmaPlot software (Systat Software, San Jose, CA, USA) as described in supplemental Supplementary Figs. S1, S2, and S3.

TAS2R19 = molecular target: T2, TAS2R19 (Homo sapiens, UniProt P59542); assay: Calcium mobilization assay, HEK293T-Gα16gust44 cells expressing TAS2R19; conditions: maximal concentration tested: sucralose 100 mM, neotame 30 µM, Ace-K 300 mM, RebA 4 mM, RebM 4 mM, mogroside V 5 mM, erythritol 200 mM, D-allulose 500 mM, thaumatin 100 mM
T2 sequence (P59542 1-299): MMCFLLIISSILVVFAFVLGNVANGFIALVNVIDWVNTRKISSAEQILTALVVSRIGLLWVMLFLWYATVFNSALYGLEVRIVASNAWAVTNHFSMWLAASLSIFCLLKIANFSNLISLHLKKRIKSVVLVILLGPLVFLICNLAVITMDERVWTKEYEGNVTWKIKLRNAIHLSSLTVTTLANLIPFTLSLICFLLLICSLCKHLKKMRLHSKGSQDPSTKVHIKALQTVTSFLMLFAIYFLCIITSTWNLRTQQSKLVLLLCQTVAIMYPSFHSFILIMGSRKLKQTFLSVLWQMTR
Protocol: (§2) Different concentration ranges were tested depending on the injected sweet compound. […] All of the concentration-receptor combinations were measured in triplicate, and each experiment was repeated at least 3 times. The Ca^2+ change was expressed as a fractional change in fluorescent light intensity: ΔF/F = (F − F0)/F0, where F was the fluorescent light intensity at each point, and F0 was the value of fluorescent light emitted prior to stimulus application. To calculate dose–response relationships, the changes in fluorescence upon stimulus application were averaged, mock-subtracted and baseline-corrected. The resulting obtained dose–response data were adjusted by using a 4-parameter logistic equation.

TAS2R41 = molecular target: T3, TAS2R41 (Homo sapiens, UniProt P59536); assay: Calcium mobilization assay, HEK293T-Gα16gust44 cells expressing TAS2R41; conditions: maximal concentration tested: sucralose 100 mM, neotame 30 µM, Ace-K 300 mM, RebA 4 mM, RebM 4 mM, mogroside V 5 mM, erythritol 200 mM, D-allulose 500 mM, thaumatin 100 mM
T3 sequence (P59536 1-307): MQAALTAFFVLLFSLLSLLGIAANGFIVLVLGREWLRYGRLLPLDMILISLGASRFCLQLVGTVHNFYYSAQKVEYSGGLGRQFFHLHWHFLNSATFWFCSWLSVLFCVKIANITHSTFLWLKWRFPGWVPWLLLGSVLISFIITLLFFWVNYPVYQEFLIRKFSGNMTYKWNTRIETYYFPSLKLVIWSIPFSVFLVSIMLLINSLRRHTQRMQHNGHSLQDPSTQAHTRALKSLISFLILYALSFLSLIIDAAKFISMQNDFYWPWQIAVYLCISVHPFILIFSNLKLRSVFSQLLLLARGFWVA
Protocol: as §1

TAS2R1 = molecular target: T4, TAS2R1 (Homo sapiens, UniProt Q9NYW7); assay: Calcium mobilization assay, HEK293T-Gα16gust44 cells expressing TAS2R1; conditions: for Response of TAS2R1: maximal concentration tested: sucralose 100 mM, neotame 30 µM, Ace-K 300 mM, RebA 4 mM, RebM 4 mM, mogroside V 5 mM, erythritol 200 mM, D-allulose 500 mM, thaumatin 100 mM
T4 sequence (Q9NYW7 1-299): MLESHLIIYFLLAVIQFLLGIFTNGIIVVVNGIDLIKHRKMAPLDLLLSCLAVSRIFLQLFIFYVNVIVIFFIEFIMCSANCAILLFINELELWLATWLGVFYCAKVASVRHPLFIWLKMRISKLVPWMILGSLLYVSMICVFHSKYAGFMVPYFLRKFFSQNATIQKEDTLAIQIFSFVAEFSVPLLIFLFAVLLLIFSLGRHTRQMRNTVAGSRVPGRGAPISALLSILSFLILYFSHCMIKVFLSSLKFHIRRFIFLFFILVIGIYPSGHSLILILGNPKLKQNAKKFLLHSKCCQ
Protocol: as §2

TAS2R3 = molecular target: T5, TAS2R3 (Homo sapiens, UniProt Q9NYW6); assay: Calcium mobilization assay, HEK293T-Gα16gust44 cells expressing TAS2R3; conditions: maximal concentration tested: sucralose 100 mM, neotame 30 µM, Ace-K 300 mM, RebA 4 mM, RebM 4 mM, mogroside V 5 mM, erythritol 200 mM, D-allulose 500 mM, thaumatin 100 mM
T5 sequence (Q9NYW6 1-316): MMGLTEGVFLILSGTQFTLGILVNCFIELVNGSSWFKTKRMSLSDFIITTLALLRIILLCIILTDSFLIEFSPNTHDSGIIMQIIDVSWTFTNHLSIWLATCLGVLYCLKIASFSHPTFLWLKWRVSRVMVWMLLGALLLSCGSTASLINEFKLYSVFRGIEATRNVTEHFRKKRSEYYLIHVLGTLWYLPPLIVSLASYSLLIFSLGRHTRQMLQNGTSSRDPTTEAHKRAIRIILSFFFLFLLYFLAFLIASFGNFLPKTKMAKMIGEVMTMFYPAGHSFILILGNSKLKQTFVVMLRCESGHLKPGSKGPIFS
Protocol: as §1

TAS2R8 = molecular target: T6, TAS2R8 (Homo sapiens, UniProt Q9NYW2); assay: Calcium mobilization assay, HEK293T-Gα16gust44 cells expressing TAS2R8; conditions: maximal concentration tested: sucralose 100 mM, neotame 30 µM, Ace-K 300 mM, RebA 4 mM, RebM 4 mM, mogroside V 5 mM, erythritol 200 mM, D-allulose 500 mM, thaumatin 100 mM
T6 sequence (Q9NYW2 1-309): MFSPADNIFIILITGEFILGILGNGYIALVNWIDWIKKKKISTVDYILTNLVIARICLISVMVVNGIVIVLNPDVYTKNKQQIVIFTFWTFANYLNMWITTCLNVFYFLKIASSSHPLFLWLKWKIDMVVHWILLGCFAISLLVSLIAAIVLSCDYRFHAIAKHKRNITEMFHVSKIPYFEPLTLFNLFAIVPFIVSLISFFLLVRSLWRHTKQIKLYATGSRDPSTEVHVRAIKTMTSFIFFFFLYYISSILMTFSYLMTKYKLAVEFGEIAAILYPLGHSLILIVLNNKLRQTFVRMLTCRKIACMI
Protocol: as §1

[1] = sucrose = 1, cited from earlier work
TAS2R31 = molecular target: T7, TAS2R31 (Homo sapiens, UniProt P59538); assay: Calcium mobilization assay, HEK293T-Gα16gust44 cells expressing TAS2R31; conditions: maximal concentration tested: sucralose 100 mM, neotame 30 µM, Ace-K 300 mM, RebA 4 mM, RebM 4 mM, mogroside V 5 mM, erythritol 200 mM, D-allulose 500 mM, thaumatin 100 mM
T7 sequence (P59538 1-309): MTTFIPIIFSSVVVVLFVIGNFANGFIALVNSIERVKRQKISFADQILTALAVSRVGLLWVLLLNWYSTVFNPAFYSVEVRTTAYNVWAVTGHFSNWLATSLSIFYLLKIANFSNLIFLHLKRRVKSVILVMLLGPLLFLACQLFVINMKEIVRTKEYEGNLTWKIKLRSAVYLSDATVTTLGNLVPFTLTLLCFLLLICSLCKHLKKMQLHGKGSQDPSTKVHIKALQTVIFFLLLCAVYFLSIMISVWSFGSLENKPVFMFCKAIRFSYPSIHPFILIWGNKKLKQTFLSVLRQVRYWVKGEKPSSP
Protocol: as §2

[2] = ref Schiffman and Gatlin (1993)

Response of TAS2R45 (TAS2R45) | Response of TAS2R19 (TAS2R19) | Response of TAS2R41 (TAS2R41) | Response of TAS2R1 (TAS2R1) | Response of TAS2R3 (TAS2R3) | Response of TAS2R8 (TAS2R8) | Response of TAS2R31 (TAS2R31) | EC50 (TAS2R1; TAS2R1 EC50) | Compound | Sweetness potency ([1]; ref Ko et al. (2020)) | Sweetness potency ([1]; ref Prakash et al. (2014)) | Sweetness potency ([1]; ref Jia and Yang (2009)) | Sweetness potency ([1]; ref Fujimaru et al. (2012)) | Sweetness potency ([1]; ref Nofre and Tinti (2000)) | Sweetness potency ([1]; ref van der Wel and Loeve (1972)) | Sweetness potency [1, 2]
− | − | − | − | − | − | − |  | C=C1C[C@@]23CC[C@H]4[C@@](C)(CCC[C@@]4(C)C(=O)O[C@@H]4O[C@H](CO)[C@@H](O)[C@H](O[C@@H]5O[C@H](CO)[C@@H](O)[C@H](O)[C@H]5O)[C@H]4O[C@@H]4O[C@H](CO)[C@@H](O)[C@H](O)[C@H]4O)[C@@H]2CC[C@]1(O[C@@H]1O[C@H](CO)[C@@H](O)[C@H](O[C@@H]2O[C@H](CO)[C@@H](O)[C@H](O)[C@H]2O)[C@H]1O[C@@H]1O[C@H](CO)[C@@H](O)[C@H](O)[C@H]1O)C3 [RebM, Rebaudioside M] |  | 250^d |  |  |  |  | 
− | − | − | − | − | − | − |  | OC[C@@H](O)[C@@H](O)CO [Erythritol, erythritol] |  |  |  | 0.9^f |  |  | 
− | − | − | − | − | − | − |  | COC(=O)[C@H](Cc1ccccc1)NC(=O)[C@H](CC(=O)O)NCCC(C)(C)C [Neotame] |  |  |  |  | 10,000^a |  | 
− | − | − | − | − | − | − |  | thaumatin |  |  |  |  |  | 100,000^b | 
− | − | − | #^a | − | − | §^a | > 100 mM | OC[C@H]1O[C@H](O[C@]2(CCl)O[C@H](CCl)[C@@H](O)[C@@H]2O)[C@H](O)[C@@H](O)[C@H]1Cl [Sucralose, sucralose] |  |  |  |  |  |  | 600^g
− | − | − | − | − | − | #^b |  | CC1=CC(=O)NS(=O)(=O)O1 [Ace-K, acesulfame-K] |  |  |  |  |  |  | 200^g

Compound | Response of TAS2R45 (TAS2R45) | Response of TAS2R19 (TAS2R19) | Response of TAS2R41 (TAS2R41) | Response of TAS2R1 (TAS2R1) | Response of TAS2R3 (TAS2R3) | Response of TAS2R8 (TAS2R8) | Response of TAS2R31 (TAS2R31) | EC50 (TAS2R1; TAS2R1 EC50) | Sweetness potency ([1]; ref Ko et al. (2020)) | Sweetness potency ([1]; ref Prakash et al. (2014)) | Sweetness potency ([1]; ref Jia and Yang (2009)) | Sweetness potency ([1]; ref Fujimaru et al. (2012)) | Sweetness potency ([1]; ref Nofre and Tinti (2000)) | Sweetness potency ([1]; ref van der Wel and Loeve (1972)) | Sweetness potency [1, 2]
O=C(CO)[C@H](O)[C@H](O)[C@H](O)CO [D-allulose] | − | + | − | − | − | − | − |  | 0.6^h |  |  |  |  |  | 
C[C@H](CC[C@@H](O[C@@H]1O[C@H](CO[C@@H]2O[C@H](CO)[C@@H](O)[C@H](O)[C@H]2O)[C@@H](O)[C@H](O)[C@H]1O[C@@H]1O[C@H](CO)[C@@H](O)[C@H](O)[C@H]1O)C(C)(C)O)[C@H]1CC[C@@]2(C)[C@@H]3CC=C4[C@@H](CC[C@H](O[C@@H]5O[C@H](CO[C@@H]6O[C@H](CO)[C@@H](O)[C@H](O)[C@H]6O)[C@@H](O)[C@H](O)[C@H]5O)C4(C)C)[C@]3(C)[C@H](O)C[C@]12C [Mogroside V, mogroside V] | − | − | − | − | − | − | − |  |  |  | 500^c |  |  |  | 
